Assay results taken from BigSolDB 2.1.

CC(=O)Nc1ccc([N+](=O)[O-])cc1
solubility (mole fraction)
Conditions	278.15 K	283.15 K	288.15 K	293.15 K	298.15 K	303.15 K	308.15 K	313.15 K	318.15 K	323.15 K
in 1,4-dioxane	–	–	0.00627	0.00697	0.00787	0.00907	0.0107	0.0127	0.0151	0.0182
in DMF	0.102	0.107	0.112	0.118	0.126	0.135	0.145	0.156	0.171	0.187
in NMP	0.0745	0.0841	0.0984	0.111	0.126	0.144	0.163	0.184	0.21	0.244
in acetonitrile	0.00235	0.00271	0.00325	0.00386	0.00456	0.00545	0.0065	0.00778	0.00923	0.011
in cyclohexane	–	1.94e-06	2.71e-06	3.77e-06	5.18e-06	6.81e-06	8.98e-06	1.16e-05	1.49e-05	1.91e-05
in ethanol	0.00182	0.00222	0.00265	0.00318	0.00377	0.00458	0.00542	0.00641	0.00772	0.00921
in ethyl acetate	0.00357	0.00414	0.00481	0.00562	0.00682	0.00824	0.00993	0.0118	0.0144	0.0171
in ethylene glycol	0.000807	0.000953	0.00114	0.00141	0.00171	0.00208	0.00246	0.00301	0.00367	0.00451
in isobutanol	0.00132	0.00158	0.00193	0.00233	0.00284	0.00335	0.00405	0.00488	0.00602	0.00728
in isopropanol	0.00166	0.00201	0.00241	0.00292	0.00348	0.00436	0.00515	0.0062	0.00736	0.00868
in methanol	0.00147	0.00182	0.00215	0.00261	0.00312	0.00366	0.00441	0.00543	0.0065	0.00772
in n-butanol	0.00225	0.0026	0.00308	0.0036	0.0043	0.00512	0.0062	0.0074	0.00894	0.0106
in n-heptanol	0.00264	0.00303	0.00354	0.00417	0.00508	0.00621	0.00742	0.00911	0.0108	0.013
in n-propanol	0.0021	0.00251	0.00297	0.00352	0.00418	0.00496	0.00595	0.00714	0.00856	0.0101
in water	6.37e-06	7.72e-06	1.04e-05	1.34e-05	1.68e-05	2.23e-05	2.89e-05	3.67e-05	4.69e-05	6.01e-05
